{"source": "paper PMC3856494", "about": "“Radiofluorination and biological evaluation of N-aryl-oxadiazolyl-propionamides as potential radioligands for PET imaging of cannabinoid CB2 receptors” (Organic and Medicinal Chemistry Letters, 2013)", "key": {"[1]": {"assay": "HPLC-based logD determination", "assay_type": "physicochemical", "conditions": "RP-HPLC, reference compounds, n = 3 to 6", "method": "The distribution coefficients of [^18F]1 and [^18F]2 were also calculated from RP-HPLC retention times in three different systems: (1) isocratic elution (60% MeCN/20 mM NH4OAc at a flow rate of 1 mL/min) and (2) gradient elution (starting from 10% MeCN/20 mM NH4OAc aq. for 10 min with a gradient to 90% MeCN/20 mM NH4OAc aq. over 30 min at a flow rate of 1 mL/min) on a Reprosil-Pur C18-AQ column (5 μm, 250 × 4.6 mm, Dr. Maisch HPLC GmbH, Ammerbruch-Entringen, Germany), and (3) isocratic elution (52.5% MeCN/20 mM NH4OAc at a flow rate of 1 mL/min) on a Prodigy 5 μm C8 (250 × 4 mm; Phenomenex Ltd, Aschaffenburg, Germany) using the reference compounds following the protocol according to the EU guideline 67/548/EWG [44]."}, "human CB2R": {"molecular_target": "human CB2R (Homo sapiens, UniProt P34972)", "sequence (P34972 whole entry)": "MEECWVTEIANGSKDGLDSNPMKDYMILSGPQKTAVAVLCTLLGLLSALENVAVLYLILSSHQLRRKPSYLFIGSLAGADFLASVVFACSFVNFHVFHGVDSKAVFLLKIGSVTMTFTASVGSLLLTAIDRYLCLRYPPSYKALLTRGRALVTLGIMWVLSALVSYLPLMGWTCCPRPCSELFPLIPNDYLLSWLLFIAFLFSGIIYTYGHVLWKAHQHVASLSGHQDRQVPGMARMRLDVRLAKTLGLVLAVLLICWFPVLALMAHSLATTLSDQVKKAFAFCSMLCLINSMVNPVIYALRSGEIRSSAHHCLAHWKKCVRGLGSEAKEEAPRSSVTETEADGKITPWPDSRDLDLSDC", "assay": "In vitro CB receptor affinity assay, displacement of [3H]CP55,940, CHO cells transfected with human CB2R", "assay_type": "binding", "method": "(§1) For binding experiments, Chinese hamster ovary (CHO) cell lines stably transfected with human CB1R human and CB2R were used according to the procedures previously described. […] The binding experiments were performed in triplicates, and data were given as mean values from independent experiments."}, "human CB1R": {"molecular_target": "human CB1R (Homo sapiens, UniProt P21554)", "sequence (P21554 whole entry)": "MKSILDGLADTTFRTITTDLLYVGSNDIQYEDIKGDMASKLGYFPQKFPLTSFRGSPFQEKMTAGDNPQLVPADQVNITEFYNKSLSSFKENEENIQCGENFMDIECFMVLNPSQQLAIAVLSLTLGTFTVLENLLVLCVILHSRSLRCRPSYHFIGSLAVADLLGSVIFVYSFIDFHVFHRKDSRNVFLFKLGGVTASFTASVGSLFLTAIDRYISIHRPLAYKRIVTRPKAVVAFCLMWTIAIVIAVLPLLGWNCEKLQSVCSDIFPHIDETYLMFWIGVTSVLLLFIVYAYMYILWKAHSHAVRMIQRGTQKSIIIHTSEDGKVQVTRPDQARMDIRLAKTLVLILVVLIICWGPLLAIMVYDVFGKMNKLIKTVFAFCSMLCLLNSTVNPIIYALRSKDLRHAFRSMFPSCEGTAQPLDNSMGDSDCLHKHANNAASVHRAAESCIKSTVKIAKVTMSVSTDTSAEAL", "assay": "In vitro CB receptor affinity assay, displacement of [3H]CP55,940, CHO cells transfected with human CB1R", "assay_type": "binding", "conditions": "[3H]CP55,940 displacement, hCB1R CHO cells; read-out: Ki CB1R", "method": "as §1"}}, "note": "Read-outs that look alike come from different tables or passages of the source.", "data": [{"smiles": "CCn1c2ccccc2c2cc(NC(=O)CCc3nc(-c4ccc(F)cc4Br)no3)ccc21", "note": "[Compound 2, 3-[3-(2-Bromo-4-fluorophenyl)-1,2,4-oxadiazol-5-yl]-N-(9-ethyl-9H-carbazol-3-yl)propanamide]", "values": [{"measurement": "chromatographic logD", "setting": "[1]; gradient 10% to 90% MeCN/20 mM NH4OAc, read-out: logD Reposil-Pur C18-AQ Gradient", "value": "4.35 ± 0.11"}, {"measurement": "chromatographic logD", "setting": "[1]; isocratic 52.5% MeCN/20 mM NH4OAc, read-out: logD Prodigy 5 μ C8 Isocratic", "value": "4.4 ± 0.35"}, {"measurement": "chromatographic logD", "setting": "[1]; isocratic 60% MeCN/20 mM NH4OAc, read-out: logD Reposil-Pur C18-AQ Isocratic", "value": "4.87 ± 0.36"}, {"measurement": "Ki", "setting": "human CB2R", "value": "4.27 ± 3.03", "unit": "nM"}, {"measurement": "Ki", "setting": "human CB1R", "value": "> 1000", "unit": "nM"}]}]}
